The record followed here is US20240307415A1, “STEROID COMPOUND, AND PHARMACEUTICAL COMPOSITION THEREOF AND USE THEREOF” (JIANGSU SIMCERE PHARMACEUTICAL CO., LTD., priority 2021, published 2024).

Data set [1] can be described thus: Plasma protein binding rate, mouse plasma (equilibrium dialysis). Type of data set: in vitro ADME. As to conditions: CD-1, mouse, pH 7.4, equilibrium dialysis 6 h, 37° C. The method, then: The protein binding rates of the compound of the present invention in plasma of 5 species (humans, monkeys, dogs, rats, and mice) were determined using the following method.
• 1. Human plasma (BioIVT), monkey plasma (ADME-plasma-pooled monkey-05212020), beagle dog plasma (BioIVT), SD rat plasma (BioIVT), and CD-1 mouse plasma (BioIVT) • 2. Na2HPO4 (Sigma S5136-500G) • 3. NaH2PO4 (Sigma S3139-500G) • 4. NaCl (Sigma S5886-IKG) • 5. 96-well equilibrium dialysis plate (HTDialysis LLC, Gales Ferry, CT, HTD96B) and equilibrium dialysis membrane (MWCO 12-14K, 1101) • 6. Positive control compound warfarin • 7. ABI QTrap 5500 liquid chromatography-mass spectrometry system
• 1. […] Preparation of a dialysis membrane: the dialysis membrane was soaked in ultrapure water for 60 min to separate the membrane into two pieces, then soaked with 20% ethanol for 20 min, and finally soaked with dialysis buffer for 20 min. • 3. Preparation of plasma: the frozen plasma was quickly thawed at room temperature and then centrifuged at 3,220 g at 4° C. for 10 min to remove clots, and the supernatant was collected to a new centrifuge tube. The pH of the plasma was measured and recorded. The plasma with pH 7-8 was used. • 4. […]
The peak areas of the compound on the buffer side and the plasma side were measured. The plasma protein binding rate of the compound was calculated by the following formula: […]
For orientation: In equilibrium dialysis free small molecules cross a membrane that holds back macromolecules.

Data set [2] can be described thus: Membrane permeability and transport properties (Caco-2). Format: in vitro ADME. To be noted: human, pH 7.4, Caco-2, 10 μM. An excerpt: • 1. Caco-2 cells (ATCC) • 2. HEPES (Solarbio 804D049), penicillin/streptomycin (Solarbio 20200109), and PBS (Solarbio 20200620) • 3. Fetal Bovine Serum (FBS) (Sigma WXBD0055V), lucifer yellow (Sigma MKCJ3738), and NaHCO3 (Sigma SLBZ4647) • 4. Hank's balanced salt solution (HBSS) (Gibco 2085528), non-essential amino acid (NEAA) (Gibco 2211548), and Trypsin/EDTA (Gibco 2120732) • 5. High glucose DMEM (Corning 20319014) • 6. HTS Transwell-96 Well Permeable (Corning, 3391) • 7. Resistance detector (Millipore, Millicell® ERS-2) • 8. Cellometer® Vision (Nexcelom Bioscience) • 9. Infinite 200 PRO microplate reader (Tecan, Infinite M200PRO) • 10. Positive control compound metoprolol (Sinopharm 100084-201403), erythromycin (MCE 84550), and cimetidine (Sinopharm 100158-201406) • 11. ABI QTrap 5500 liquid chromatography-mass spectrometry system
• 1. […] Evaluation of integrity of monolayer cell membrane • 1) The cells fused and differentiated after 14 days of culture and were ready for a transport experiment. • 2) The resistance of the monolayer membrane was measured using a resistance detector. The resistance of each well was recorded. • 3) After measurement, the Transwell culture plate was re-incubated. • 4) The TEER value was calculated: […]
Background: Caco-2 monolayers are a common model of the intestinal barrier.

In data set [1], `C[C@]12C=CC(=O)C=C1CC[C@@H]1[C@@H]2[C@@H](O)C[C@@]2(C)[C@H]1C[C@H]1O[C@@H](c3ccc(Cc4cc(N)c5c(c4)CCO5)cc3)O[C@]12C(=O)CO` [Compound 009, (6aR,6bS,7S,8aS,8bS,10R,11aR,12aS,12bS)-10-(4-((7-amino-2,3-dihydrobenzofuran-5-yl)methyl)phenyl)-7-hydroxy-8b-(2-hydroxyacetyl)-6a,8a-dimethyl-6a,6b,7,8,8a,8b,11a,12,12a,12b-decahydro-1H-naphtho[2′,1′:4,5]indeno[1,2-d][1,3]dioxolan-4(2H)-one] showed a fraction unbound at 6 h, 1 μM of 0.002. Moreover, the Papp A→B at 2 h, 10 μM in data set [2] (apical to basal) was 0.73 ×10⁻⁶ cm/s. Further, the Papp B→A at 2 h, 10 μM in data set [2] (basal to apical) stood at 3.86 ×10⁻⁶ cm/s.

For orientation: fraction unbound means free concentration divided by total concentration. Usually Papp A→B stands for the apparent permeability from the apical to the basolateral side of a cell layer. Higher therefore signals fast passage. The term Papp B→A denotes how fast a substance crosses the layer from the basolateral side.
